Source: patent US9210936B2, “Biocidal compositions and methods of use” (Dow Global Technologies LLC, priority 2011, dated 2015)

How the values were obtained:
Format in all cases: cell-based
[1] = system: Desulfovibrio longus ATCC 51456; assay: Biocidal efficacy (MBC, minimum tested biocide concentration for complete bacterial kill) against anaerobic bacteria in salt solution; conditions: 35° C., 2 hours, 10^6 to 10^7 CFU/mL; for Concentration (ppm active) for anaerobic bacteria kill, DTEA: DTEA part of the MBC for complete bacterial kill; for Concentration (ppm active) for anaerobic bacteria kill, THPS: THPS part of the MBC for complete bacterial kill
Method: The synergy indexes reported in the following examples are calculated using the following equation: Synergy Index=Ca/CA+Cb/CB
Ca: Concentration of biocide A required to achieve a certain level of bacterial kill when used in combination with B
CA: Concentration of biocide A required to achieve a certain level of bacterial kill when used alone
Cb: Concentration of biocide B required to achieve a certain level of bacterial kill when used in combination with A
CB: Concentration of biocide B required to achieve a certain level of bacterial kill when used alone.
A synergy index (SI) of 1 indicates additivity, a synergy index of less than 1 indicates synergy, and a synergy index greater than 1 indicates antagonism.
Inside an anaerobic chamber (Bactron anaerobic chamber), a deoxygenated sterile salt solution (3.1183 g of NaCl, 1.3082 mg of NaHCO3, 47.70 mg of KCl, 72.00 mg of CaCl2, 54.49 mg of MgSO4, 172.28 mg of Na2SO4, 43.92 mg of Na2CO3 in 1 L water) is inoculated with Desulfovibrio longus ATCC 51456 to a final bacterial concentration of 10^6 to 10^7 CFU/mL. […] After the treated cell suspensions are incubated at 35° C. for 2 hours, the biocidal efficacy is determined by minimum tested biocide concentration for complete bacterial kill in the aliquots (MBC).

[2] = system: Biofilms of Desulfovibrio longus ATCC 51456 (sessile bacteria); assay: Sessile bacteria kill in biofilms grown in Calgary Biofilm Device; conditions: 72 hours biofilm, 2 hours treatment, anaerobic
Method: (§1) Modified Baar's Medium (ATCC #1249 Broth) is used as culture medium and the medium is changed after 48 hrs of incubation.

[3] = system: Biofilms of Desulfovibrio longus ATCC 51456; assay: Biofilm removal, remaining biofilm by crystal violet staining; conditions: 2 hours treatment, optical density of biofilm captured crystal violet at 580 nm
Method: as §1
The biofilm is fixed with 99% methanol and, after air drying, the pegs are stained with 2% (w/v) crystal violet and washed with tap water. The pegs are then air dried and the crystal violet bound to the biofilm is extracted with 33% glacial acetic acid. The total remaining biofilm is determined by the optical density (OD) of the extracted solution at 580 nm.

| Molecule | Concentration (ppm active) for anaerobic bacteria kill, DTEA [1] [ppm active] | Concentration (ppm active) for anaerobic bacteria kill, THPS [1] [ppm active] | Concentration (ppm active) for 3 log10 bacterial reduction [2] [ppm active] | Remaining biofilm, OD580 ([3]; 50 ppm active) | Remaining biofilm, OD580 ([3]; 100 ppm active) |
| --- | --- | --- | --- | --- | --- |
| CCCCCCCCCCSCCN [DTEA, 2-(decylthio)ethanamine] | 20.00 | 0.00 | – | – | – |
| tetrakis(hydroxymethyl)phosphonium sulfate [THPS] | 0.00 | 19.75 | 50 | 0.57 | 0.68 |
